Laboratory results reported in ChEMBL document CHEMBL1201862, “PubChem BioAssay data set” (2004).
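Protocol summary: plate cells (96-well), add compound at 5 concentrations, incubate 48 h, interpolate endpoints linearly. GI50 = concentration required for 50% inhibition of growth.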 Calls of active or inactive are those of the source. Cut-off read from the data, not from the text of the source: active = GI50 up to about 1.1 µM and inactive = higher.

Tests used:
Assay in all cases: growth of human tumour cells (NCI), 48 h
A549 = tested on: A549
CCRF-CEM = tested on: CCRF-CEM
COLO 205 = tested on: COLO 205
HCC 2998 = tested on: HCC 2998
HL-60 = tested on: HL-60
Hs-578T = tested on: Hs-578T
IGROV-1 = tested on: IGROV-1
MCF7 = tested on: MCF7
Malme-3M = tested on: Malme-3M
NCI/ADR-RES = tested on: NCI/ADR-RES
OVCAR-4 = tested on: OVCAR-4
OVCAR-8 = tested on: OVCAR-8
PC-3 = tested on: PC-3
RPMI-8226 = tested on: RPMI-8226
SF-295 = tested on: SF-295
SK-MEL-2 = tested on: SK-MEL-2
SK-OV-3 = tested on: SK-OV-3
TK-10 = tested on: TK-10
UACC-257 = tested on: UACC-257
UO-31 = tested on: UO-31

| Compound | GI50 (A549) | GI50 (CCRF-CEM) | GI50 (COLO 205) | GI50 (HCC 2998) | GI50 (HL-60) | GI50 (Hs-578T) | GI50 (IGROV-1) | GI50 (MCF7) | GI50 (Malme-3M) | GI50 (NCI/ADR-RES) | GI50 (OVCAR-4) | GI50 (OVCAR-8) | GI50 (PC-3) | GI50 (RPMI-8226) | GI50 (SF-295) | GI50 (SK-MEL-2) | GI50 (SK-OV-3) | GI50 (TK-10) | GI50 (UACC-257) | GI50 (UO-31) |
| --- | --- | --- | --- | --- | --- | --- | --- | --- | --- | --- | --- | --- | --- | --- | --- | --- | --- | --- | --- | --- |
| COCC(=O)OC1CCn2c1nc1c2C(=O)C(C)=C(NC(C)=O)C1=O (stereo not given) | 21.6 µM (inactive) | 0.857 µM (active) | 15.5 µM (inactive) | 13 µM (inactive) | 1.43 µM (inactive) | 4.06 µM (inactive) | 14.5 µM (inactive) | 1.84 µM (inactive) | 2.77 µM (inactive) | 4.49 µM (inactive) | 1.85 µM (inactive) | 3.48 µM (inactive) | 2.27 µM (inactive) | 2.33 µM (inactive) | 16.3 µM (inactive) | 4.04 µM (inactive) | 15.4 µM (inactive) | 18.2 µM (inactive) | 3.97 µM (inactive) | 12.6 µM (inactive) |
| Nc1onc2c1Cc1c(noc1N)-c1ccccc1-2 | 71 µM (inactive) | 42.7 µM (inactive) | 58.6 µM (inactive) | > 100 µM (inactive) | 19.8 µM (inactive) | 26.9 µM (inactive) | 54.5 µM (inactive) | 49.7 µM (inactive) | 41.9 µM (inactive) | > 100 µM (inactive) | > 100 µM (inactive) | 59.6 µM (inactive) | 48.3 µM (inactive) | 53.7 µM (inactive) | 65.2 µM (inactive) | 61.2 µM (inactive) | 45.1 µM (inactive) | > 100 µM (inactive) | 74.3 µM (inactive) | 53.6 µM (inactive) |
| CCOC(=O)c1c(Br)c(-c2ccc(Br)cc2)c(Br)n1C | 23.6 µM (inactive) | 14.7 µM (inactive) | 14.9 µM (inactive) | 19.5 µM (inactive) | 6.59 µM (inactive) | 34.3 µM (inactive) | 12.2 µM (inactive) | 22.8 µM (inactive) | 18.5 µM (inactive) | 5.38 µM (inactive) | 19.3 µM (inactive) | 28.8 µM (inactive) | 19.4 µM (inactive) | 17.9 µM (inactive) | 17.9 µM (inactive) | > 10 µM (inactive) | 32.8 µM (inactive) | 39 µM (inactive) | 20.7 µM (inactive) | 17.9 µM (inactive) |
| CS(=O)(=O)Nc1ccc(Nc2ccnc3ccc4[nH]ccc4c23)cc1 | 19.5 µM (inactive) | 4.35 µM (inactive) | 9.1 µM (inactive) | 4.98 µM (inactive) | 21.4 µM (inactive) | 21.8 µM (inactive) | 20 µM (inactive) | 4.89 µM (inactive) | 3.88 µM (inactive) | > 100 µM (inactive) | 7.83 µM (inactive) | 7.96 µM (inactive) | 12.4 µM (inactive) | 21 µM (inactive) | 24.5 µM (inactive) | 10.3 µM (inactive) | 19.5 µM (inactive) | 30.2 µM (inactive) | 15.6 µM (inactive) | 29.7 µM (inactive) |
| CCOC(=O)CCc1cn2cc(Br)nc(OC)c2n1 | 62.4 µM (inactive) | 10.1 µM (inactive) | 9.12 µM (inactive) | > 100 µM (inactive) | > 100 µM (inactive) | > 100 µM (inactive) | 65.6 µM (inactive) | 16.2 µM (inactive) | > 100 µM (inactive) | 24.9 µM (inactive) | > 100 µM (inactive) | 59.2 µM (inactive) | 50.9 µM (inactive) | 44 µM (inactive) | 57.7 µM (inactive) | > 100 µM (inactive) | 48.1 µM (inactive) | > 100 µM (inactive) | > 100 µM (inactive) | 23.2 µM (inactive) |
| CCCCCCCCCCCCCCCCCc1cccc(OCOCCOC)c1CO | > 100 µM (inactive) | > 100 µM (inactive) | > 100 µM (inactive) | > 100 µM (inactive) | > 100 µM (inactive) | > 100 µM (inactive) | > 100 µM (inactive) | > 100 µM (inactive) | > 100 µM (inactive) | > 100 µM (inactive) | > 100 µM (inactive) | > 100 µM (inactive) | > 100 µM (inactive) | > 100 µM (inactive) | > 100 µM (inactive) | > 100 µM (inactive) | > 100 µM (inactive) | > 100 µM (inactive) | > 100 µM (inactive) | > 100 µM (inactive) |
| CCCCCC(=O)OCC(=O)[C@H]1[C@H](C)C[C@H]2[C@@H]3C[C@H](F)C4=C/C(=N/OC(=O)c5cccc6c(=O)c7ccccc7[nH]c56)C=C[C@]4(C)[C@H]3[C@@H](O)C[C@@]21C | 20.6 µM (inactive) | 89.7 µM (inactive) | 24.3 µM (inactive) | 24.7 µM (inactive) | > 100 µM (inactive) | 31.7 µM (inactive) | 25.2 µM (inactive) | 21.9 µM (inactive) | 12.5 µM (inactive) | 11.2 µM (inactive) | 27.4 µM (inactive) | 10.8 µM (inactive) | 20.3 µM (inactive) | < 0.01 µM (active) | 47.8 µM (inactive) | 23.1 µM (inactive) | 24.8 µM (inactive) | 26.2 µM (inactive) | 20 µM (inactive) | 16 µM (inactive) |
| COc1ncc(C#CC(=O)c2ccccc2OC)c(OC)n1 | 5.98 µM (inactive) | 0.0995 µM (active) | 2 µM (inactive) | 6.35 µM (inactive) | 0.432 µM (active) | 9.98 µM (inactive) | 1.82 µM (inactive) | 0.736 µM (active) | 1.61 µM (inactive) | 2.01 µM (inactive) | 5.78 µM (inactive) | 2.06 µM (inactive) | 1.86 µM (inactive) | 2.61 µM (inactive) | 16.9 µM (inactive) | 2.3 µM (inactive) | 25.6 µM (inactive) | 0.891 µM (active) | 3.52 µM (inactive) | 1.55 µM (inactive) |
| COC(=O)C1=C(OC(=O)c2ccccc2)C(C(=O)OC)[C@]2(O)[C@@H](C(=O)OC)[C@H]1C[C@@H](c1ccccc1)[C@@H]2C(=O)OC (stereo not given in full) | 9.18 µM (inactive) | 0.716 µM (active) | 10.2 µM (inactive) | 7.21 µM (inactive) | 2.02 µM (inactive) | 13.8 µM (inactive) | 4.69 µM (inactive) | 3.01 µM (inactive) | 13.5 µM (inactive) | 2.62 µM (inactive) | 10.6 µM (inactive) | 6.11 µM (inactive) | 4.82 µM (inactive) | 1.74 µM (inactive) | 5.82 µM (inactive) | 2.81 µM (inactive) | 10.6 µM (inactive) | 17.3 µM (inactive) | 5.62 µM (inactive) | 2.52 µM (inactive) |
| CC(C)C(NC(=O)C(Cc1ccccc1)NC(=O)[C@H]1CCC[C@H]1NC(=O)C(Cc1ccc(OC(C)(C)C)cc1)NC(=O)OC(C)(C)C)C(N)=O (stereo not given in full) | 20.1 µM (inactive) | 16.6 µM (inactive) | 19.6 µM (inactive) | 16.5 µM (inactive) | 34.8 µM (inactive) | > 10 µM (inactive) | 31.3 µM (inactive) | 19.8 µM (inactive) | > 10 µM (inactive) | > 100 µM (inactive) | 19.4 µM (inactive) | 16.6 µM (inactive) | 17.8 µM (inactive) | 36.5 µM (inactive) | 17.3 µM (inactive) | 26 µM (inactive) | 17.9 µM (inactive) | 28.5 µM (inactive) | > 10 µM (inactive) | 47.4 µM (inactive) |
| Cc1nc(O)nc2nc3ccc(Cl)cc3c(NC(C)(CO)CO)c12 | > 34.4 µM (inactive) | > 26.8 µM (inactive) | > 100 µM (inactive) | > 100 µM (inactive) | > 100 µM (inactive) | 46.9 µM (inactive) | 49.9 µM (inactive) | > 68.4 µM (inactive) | > 100 µM (inactive) | > 100 µM (inactive) | > 57 µM (inactive) | 72.3 µM (inactive) | 57.9 µM (inactive) | 30.8 µM (inactive) | 66.5 µM (inactive) | > 100 µM (inactive) | 36.9 µM (inactive) | 41.4 µM (inactive) | > 75.3 µM (inactive) | 4.49 µM (inactive) |
| C[Si](C)(c1ccccc1)[C@H]1CCCC=C1CCNC1c2ccccc2CCc2ccccc21 | 61.8 µM (inactive) | 1.07 µM (active) | 38.9 µM (inactive) | > 100 µM (inactive) | 1.79 µM (inactive) | > 100 µM (inactive) | 49.7 µM (inactive) | 53 µM (inactive) | 80 µM (inactive) | 76.2 µM (inactive) | 41.5 µM (inactive) | > 100 µM (inactive) | > 100 µM (inactive) | 46.8 µM (inactive) | 40.6 µM (inactive) | > 100 µM (inactive) | > 100 µM (inactive) | > 100 µM (inactive) | 52.4 µM (inactive) | 49.5 µM (inactive) |
| CN(c1ccccc1)S(=O)(=O)c1ccccc1[N+](=O)[O-] | > 100 µM (inactive) | 44.3 µM (inactive) | > 100 µM (inactive) | > 100 µM (inactive) | > 100 µM (inactive) | > 100 µM (inactive) | > 100 µM (inactive) | > 100 µM (inactive) | > 100 µM (inactive) | > 100 µM (inactive) | 98.4 µM (inactive) | > 100 µM (inactive) | 57.9 µM (inactive) | 37.8 µM (inactive) | > 100 µM (inactive) | > 100 µM (inactive) | > 100 µM (inactive) | > 100 µM (inactive) | > 100 µM (inactive) | > 100 µM (inactive) |
